# Reference: ChEMBL document CHEMBL4340507, “Identification of an indol-based multi-target kinase inhibitor through phenotype screening and target fishing using inverse virtual screening approach” (Eur J Med Chem, 2019)
# Activity calls are given as the source filed them. The rule behind the calls is not given here.
# Legend:
# [1] = molecular target: Dual specificity mitogen-activated protein kinase kinase 2 (Homo sapiens, UniProt P36507); assay: Inhibition of recombinant human MEK2 measured after 60 mins in presence of [gamma-33P]-ATP by scintillation counting method
# [2] = molecular target: Mitogen-activated protein kinase 15 (Homo sapiens, UniProt Q8TD08); assay: Inhibition of recombinant human N-terminal 4xFLAG-tagged/C-terminal His8-fused ERK7 N-terminal domain (M1 to R354 residues) expressed in Sf9 insect cells using RBER-CHKtide as substrate measured after 60 mins in presence of [gamma-33P]-ATP by scintillation counting method
# [3] = molecular target: Serine/threonine-protein kinase Chk2 (Homo sapiens, UniProt O96017); assay: Inhibition of recombinant human CHK2 measured after 60 mins in presence of [gamma-33P]-ATP by scintillation counting method
# [4] = molecular target: Casein kinase II subunit alpha' (Homo sapiens, UniProt P19784); assay: Inhibition of recombinant human full-length N-terminal GST-His6-fused CK2-alpha2 (M1 to R350 residues) expressed in Sf9 insect cells using casein as substrate measured after 60 mins in presence of [gamma-33P]-ATP by scintillation counting method
# [5] = molecular target: Platelet-derived growth factor receptor beta (Homo sapiens, UniProt P09619); assay: Inhibition of recombinant human N-terminal GST-His6-fused PDGFR-beta C-terminal domain (R561 to L1106 residues) expressed in Sf9 insect cells using Poly(Ala,Glu,Lys,Tyr)6:2:5:1 as substrate measured after 60 mins in presence of [gamma-33P]-ATP by scintillation counting method
# IEC-6 [6] = assay: Induction of ROS generation in rat IEC-6 cells at 0.1 to 0.6 uM measured after 24 hrs by H2DCF-DA staining-based FACS analysis; format: cell-based; details: iec-6, 24 h
# [7] = molecular target: Proto-oncogene tyrosine-protein kinase Src (Homo sapiens, UniProt P12931); assay: Inhibition of recombinant human full-length N-terminal GST-His6-fused SRC (M1 to L536 residues) expressed in Sf9 insect cells using Poly(Glu:Tyr)4:1 as substrate measured after 60 mins in presence of [gamma-33P]-ATP by scintillation counting method
# MCF7 = assay: Antiproliferative activity against human MCF7 cells assessed as decrease in cell viability measured after 72 hrs by MTT assay; format: functional, cell-based; details: MCF7, 72 h
# [8] = molecular target: Mast/stem cell growth factor receptor Kit (Homo sapiens, UniProt P10721); assay: Inhibition of recombinant human wild-type N-terminal GST-His6-fused KIT C-terminal domain (T544 to V976 residues) expressed in Sf9 insect cells using TRK-C derived peptide as substrate measured after 60 mins in presence of [gamma-33P]-ATP by scintillation counting method
# IEC-6 [9] = assay: Cell cycle arrest in rat IEC-6 cells assessed as increase in accumulation at S phase at 0.1 to 0.6 uM after 24 hrs by propidium iodide staining based FACS analysis; format: ADME; details: iec-6, 24 h
# [10] = molecular target: Mitogen-activated protein kinase kinase kinase 9 (Homo sapiens, UniProt P80192); assay: Inhibition of recombinant human MAP3K9 measured after 60 mins in presence of [gamma-33P]-ATP by scintillation counting method
# IEC-6 [11] = assay: Cell cycle arrest in rat IEC-6 cells assessed as decrease in accumulation at G2-phase at 0.1 to 0.6 uM after 24 hrs by propidium iodide staining-based FACS analysis; format: ADME; details: iec-6, 24 h
# [12] = molecular target: Mitogen-activated protein kinase 14 (Homo sapiens, UniProt Q16539); assay: Inhibition of recombinant human full-length untagged p38-alpha (M1 to S360 residues) expressed in Escherichia coli cells using recombinant ATF2 as substrate measured after 60 mins in presence of [gamma-33P]-ATP by scintillation counting method
# HeLa [13] = assay: Cell cycle arrest in human HeLa cells assessed as decrease in accumulation at G2-phase at 0.1 to 0.6 uM after 24 hrs by propidium iodide staining-based FACS analysis; format: functional
# [14] = molecular target: Fibroblast growth factor receptor 4 (Homo sapiens, UniProt P22455); assay: Inhibition of recombinant human N-terminal GST-His6-fused FGFR4 (R391 to T802 residues) expressed in baculovirus infected Sf9 cells using Poly(Glu:Tyr)4:1 as substrate measured after 60 mins in presence of [gamma-33P]-ATP by scintillation counting method
# [15] = molecular target: 3-phosphoinositide-dependent protein kinase 1 (Homo sapiens, UniProt O15530); assay: Inhibition of recombinant human N-terminal His6-fused PDK1 (M1 to M460 residues) expressed in Sf9 insect cells using tetra(LRRWSLG) peptide as substrate measured after 60 mins in presence of [gamma-33P]-ATP by scintillation counting method
# IEC-6 [16] = assay: Down regulation of ERK expression in rat IEC-6 cells at 0.1 to 0.6 uM after 24 hrs by FACS analysis; format: ADME, cell-based; details: iec-6, 24 h
# [17] = molecular target: Dual specificity mitogen-activated protein kinase kinase 1 (Homo sapiens, UniProt Q02750); assay: Inhibition of recombinant human wild-type full-length MEK1 (M1 to V393 residues) expressed in Sf9 insect cells using ERK2-K54R as substrate measured after 60 mins in presence of [gamma-33P]-ATP by scintillation counting method
# HeLa [18] = assay: Induction of apoptosis in human HeLa cells assessed as increase in hypodiploid nuclei at 0.3 to 0.6 uM measured after 24 hrs by propidium iodide staining-based FACS analysis; format: functional, cell-based
# IEC-6 [19] = assay: Induction of apoptosis in rat IEC-6 cells assessed as increase in hypodiploid nuclei at 0.1 to 0.6 uM measured after 24 hrs by propidium iodide staining-based FACS analysis; format: cell-based; details: iec-6, 24 h
# IEC-6 [20] = assay: Cytotoxicity against rat IEC-6 cells assessed as reduction in cell viability measured after 24 to 72 hrs by MTT assay; format: cell-based; details: Rattus norvegicus, IEC-6
# HeLa [21] = assay: Antiproliferative activity against human HeLa cells assessed as decrease in cell viability measured after 72 hrs by MTT assay; format: functional, cell-based
# HeLa [22] = assay: Down regulation of ERK expression in human HeLa cells at 0.1 to 0.6 uM after 24 hrs by FACS analysis; format: functional, cell-based
# [23] = molecular target: Mitogen-activated protein kinase 1 (Homo sapiens, UniProt P28482); assay: Inhibition of recombinant human full-length untagged ERK2 (M1 to S360 residues) expressed in Escherichia coli using recombinant ELK1 as substrate measured after 60 mins in presence of [gamma-33P]-ATP by scintillation counting method
# [24] = molecular target: Dual specificity protein kinase CLK1 (Homo sapiens, UniProt P49759); assay: Inhibition of recombinant human full-length N-terminal GST-His6-fused CLK1 (M1 to I484 residues) expressed in Sf9 cells using RS-peptide as substrate measured after 60 mins in presence of [gamma-33P]-ATP by scintillation counting method
# [25] = molecular target: Receptor tyrosine-protein kinase erbB-2 (Homo sapiens, UniProt P04626); assay: Inhibition of recombinant human wild-type N-terminal GST-His6-fused ERBB2 C-terminal domain (Q679 to V1255 residues) expressed in Sf9 insect cells using Poly(Glu:Tyr)4:1 as substrate measured after 60 mins in presence of [gamma-33P]-ATP by scintillation counting method
# [26] = Inhibition of ERK phosphorylation in rat IEC-6 cells at 0.1 to 0.6 uM after 24 hrs by FACS analysis; format: cell-based; details: iec-6, 24 h
smiles,measurement,setting,value
CN(CCc1ccc(-c2ccccc2)cc1)Cc1cn(C)c2ccc(C(=O)Nc3ccc(F)cc3)cc12,IC50,[1],74 µM
same,IC50,[2],61 µM
same,IC50,[3],79 µM
same,IC50,[4],99 µM
same,IC50,[5],81 µM
same,Activity,IEC-6 [6],Toxic
same,IC50,[7],8.8 µM
same,IC50,MCF7,2.16 µM
same,IC50,[8],11 µM
same,Activity,IEC-6 [9],Toxic
same,IC50,[10],100 µM
same,Activity,IEC-6 [11],Toxic
same,IC50,[12],88 µM
same,Activity,HeLa [13],Active
same,IC50,[14],11 µM
same,IC50,[15],11 µM
same,Activity,IEC-6 [16],Non-Toxic
same,IC50,[17],> 100 µM
same,Activity,HeLa [18],Active
same,Activity,IEC-6 [19],Toxic
same,IC50,IEC-6 [20],6.43 µM
same,IC50,HeLa [21],0.33 µM
same,Activity,HeLa [22],Active
same,IC50,[23],66 µM
same,IC50,[24],13 µM
same,IC50,[25],24 µM
same,inhibition (INH),[26],Not Active
